#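 These data come from cells grown in 96-well plates and exposed to compound for 48 hours at five concentrations. GI50: concentration for 50% inhibition of growth. At the TGI there is no net growth.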
# Tests used:
# Test in all cases: NCI-60 cell line screen, 48 h
# NCI-H226 lung = system: NCI-H226 lung
# SR leukemia = system: SR leukemia
# MDA-MB-468 breast = system: MDA-MB-468 breast
# ACHN renal = system: ACHN renal
# TK-10 renal = system: TK-10 renal
# NCI-H460 lung = system: NCI-H460 lung
# OVCAR-3 ovarian = system: OVCAR-3 ovarian
# HOP-92 NSCLC = system: HOP-92 NSCLC
# NCI-H522 lung = system: NCI-H522 lung
# KM12 colon = system: KM12 colon
# UACC-257 melanoma = system: UACC-257 melanoma
# OVCAR-5 ovarian = system: OVCAR-5 ovarian
# UO-31 renal = system: UO-31 renal
# A549 NSCLC = system: A549 NSCLC
# LOX IMVI melanoma = system: LOX IMVI melanoma
# HCT-15 colon = system: HCT-15 colon
# SF-295 CNS = system: SF-295 CNS
# M14 melanoma = system: M14 melanoma
# SNB-19 CNS = system: SNB-19 CNS
# SN12C renal = system: SN12C renal
# MDA-MB-231 breast = system: MDA-MB-231 breast
# HT29 colon = system: HT29 colon
# SF-268 CNS = system: SF-268 CNS
# MOLT-4 leukemia = system: MOLT-4 leukemia
# NCI-H23 lung = system: NCI-H23 lung
# SF-539 CNS = system: SF-539 CNS
# SW-620 colon = system: SW-620 colon
# SK-MEL-2 melanoma = system: SK-MEL-2 melanoma
# DU-145 prostate = system: DU-145 prostate
# OVCAR-8 ovarian = system: OVCAR-8 ovarian
# SK-OV-3 ovarian = system: SK-OV-3 ovarian
# T-47D breast = system: T-47D breast
# CAKI-1 renal = system: CAKI-1 renal
# HS 578T breast = system: HS 578T breast
# OVCAR-4 ovarian = system: OVCAR-4 ovarian
# HOP-62 NSCLC = system: HOP-62 NSCLC
# IGROV1 ovarian = system: IGROV1 ovarian
# U251 CNS = system: U251 CNS
# K-562 leukemia = system: K-562 leukemia
# HL-60(TB) leukemia = system: HL-60(TB) leukemia
# COLO 205 colon = system: COLO 205 colon
# SK-MEL-5 melanoma = system: SK-MEL-5 melanoma
# UACC-62 melanoma = system: UACC-62 melanoma
# CCRF-CEM leukemia = system: CCRF-CEM leukemia
# MALME-3M melanoma = system: MALME-3M melanoma
# RXF 393 renal = system: RXF 393 renal
# MCF7 breast = system: MCF7 breast
# 786-0 renal = system: 786-0 renal
# A498 renal = system: A498 renal
# SK-MEL-28 melanoma = system: SK-MEL-28 melanoma
# PC-3 prostate = system: PC-3 prostate
# SNB-75 CNS = system: SNB-75 CNS
# HCC-2998 colon = system: HCC-2998 colon
# EKVX NSCLC = system: EKVX NSCLC
# MDA-MB-435 = system: MDA-MB-435
# NCI/ADR-RES ovarian = system: NCI/ADR-RES ovarian
# BT-549 breast = system: BT-549 breast
# RPMI-8226 leukemia = system: RPMI-8226 leukemia
structure (smiles),measurement,setting,value
OCc1[nH]nc2cc(Nc3ncc4ccc(Br)c(OC5CCC(O)CC5)c4n3)ccc12 (centres undefined),GI50,NCI-H226 lung,16.4 nM
same,TGI,NCI-H226 lung,77 nM
same,TGI,SR leukemia,> 100000 nM
same,GI50,MDA-MB-468 breast,30.1 nM
same,TGI,MDA-MB-468 breast,100 nM
same,GI50,ACHN renal,23.1 nM
same,GI50,TK-10 renal,78.7 nM
same,TGI,TK-10 renal,729 nM
same,GI50,NCI-H460 lung,47.4 nM
same,TGI,NCI-H460 lung,4380 nM
same,GI50,OVCAR-3 ovarian,25.6 nM
same,TGI,OVCAR-3 ovarian,171 nM
same,GI50,HOP-92 NSCLC,92.2 nM
same,TGI,HOP-92 NSCLC,> 100000 nM
same,GI50,NCI-H522 lung,202 nM
same,TGI,NCI-H522 lung,744 nM
same,GI50,KM12 colon,34.7 nM
same,TGI,KM12 colon,358 nM
same,GI50,UACC-257 melanoma,234 nM
same,TGI,UACC-257 melanoma,9780 nM
same,GI50,OVCAR-5 ovarian,50 nM
same,TGI,OVCAR-5 ovarian,316 nM
same,GI50,UO-31 renal,28.8 nM
same,TGI,UO-31 renal,278 nM
same,GI50,A549 NSCLC,157 nM
same,TGI,A549 NSCLC,> 100000 nM
same,GI50,LOX IMVI melanoma,16.4 nM
same,TGI,LOX IMVI melanoma,59.2 nM
same,GI50,HCT-15 colon,36 nM
same,TGI,HCT-15 colon,1540 nM
same,GI50,SF-295 CNS,40.6 nM
same,TGI,SF-295 CNS,508 nM
same,GI50,M14 melanoma,45 nM
same,TGI,M14 melanoma,1740 nM
same,GI50,SNB-19 CNS,25.8 nM
same,TGI,SNB-19 CNS,> 44800 nM
same,GI50,SN12C renal,35 nM
same,TGI,SN12C renal,20000 nM
same,GI50,MDA-MB-231 breast,30.1 nM
same,TGI,MDA-MB-231 breast,505 nM
same,GI50,HT29 colon,103 nM
same,TGI,HT29 colon,487 nM
same,GI50,SF-268 CNS,33.5 nM
same,TGI,SF-268 CNS,1320 nM
same,GI50,MOLT-4 leukemia,37.2 nM
same,TGI,MOLT-4 leukemia,> 100000 nM
same,GI50,NCI-H23 lung,40.2 nM
same,TGI,NCI-H23 lung,257 nM
same,GI50,SF-539 CNS,22.5 nM
same,TGI,SF-539 CNS,69.6 nM
same,GI50,SW-620 colon,25.7 nM
same,TGI,SW-620 colon,1960 nM
same,GI50,SK-MEL-2 melanoma,47.6 nM
same,TGI,SK-MEL-2 melanoma,213 nM
same,GI50,DU-145 prostate,35.9 nM
same,TGI,DU-145 prostate,> 100000 nM
same,GI50,OVCAR-8 ovarian,40.5 nM
same,TGI,OVCAR-8 ovarian,> 71900 nM
same,GI50,SK-OV-3 ovarian,376 nM
same,TGI,SK-OV-3 ovarian,> 100000 nM
same,GI50,T-47D breast,41.1 nM
same,TGI,T-47D breast,904 nM
same,GI50,CAKI-1 renal,21.2 nM
same,TGI,CAKI-1 renal,2400 nM
same,GI50,HS 578T breast,44.4 nM
same,TGI,HS 578T breast,1850 nM
same,GI50,OVCAR-4 ovarian,44.2 nM
same,TGI,OVCAR-4 ovarian,1760 nM
same,GI50,HOP-62 NSCLC,34 nM
same,TGI,HOP-62 NSCLC,22800 nM
same,GI50,IGROV1 ovarian,32.6 nM
same,TGI,IGROV1 ovarian,1190 nM
same,GI50,U251 CNS,39.1 nM
same,TGI,U251 CNS,> 100000 nM
same,GI50,K-562 leukemia,78.8 nM
same,TGI,K-562 leukemia,> 100000 nM
same,GI50,HL-60(TB) leukemia,14.7 nM
same,TGI,HL-60(TB) leukemia,105 nM
same,GI50,COLO 205 colon,31.7 nM
same,TGI,COLO 205 colon,145 nM
same,GI50,SK-MEL-5 melanoma,27 nM
same,TGI,SK-MEL-5 melanoma,428 nM
same,GI50,UACC-62 melanoma,35.9 nM
same,TGI,UACC-62 melanoma,379 nM
same,GI50,CCRF-CEM leukemia,31.4 nM
same,TGI,CCRF-CEM leukemia,> 100000 nM
same,GI50,MALME-3M melanoma,88.2 nM
same,TGI,MALME-3M melanoma,517 nM
same,GI50,RXF 393 renal,19.3 nM
same,TGI,RXF 393 renal,46.7 nM
same,GI50,MCF7 breast,19.9 nM
same,TGI,MCF7 breast,1100 nM
same,GI50,786-0 renal,37.1 nM
same,TGI,786-0 renal,2700 nM
same,GI50,A498 renal,49.5 nM
same,TGI,A498 renal,231 nM
same,GI50,SK-MEL-28 melanoma,49.9 nM
same,TGI,SK-MEL-28 melanoma,963 nM
same,GI50,PC-3 prostate,50.2 nM
same,TGI,PC-3 prostate,> 100000 nM
same,GI50,SNB-75 CNS,35.9 nM
same,TGI,SNB-75 CNS,296 nM
same,GI50,HCC-2998 colon,51.2 nM
same,TGI,HCC-2998 colon,519 nM
same,GI50,EKVX NSCLC,67.3 nM
same,TGI,EKVX NSCLC,414 nM
same,GI50,MDA-MB-435,39.9 nM
same,TGI,MDA-MB-435,2470 nM
same,GI50,NCI/ADR-RES ovarian,226 nM
same,TGI,NCI/ADR-RES ovarian,12200 nM
same,GI50,BT-549 breast,27.4 nM
same,TGI,BT-549 breast,133 nM
same,GI50,RPMI-8226 leukemia,276 nM
same,TGI,RPMI-8226 leukemia,> 100000 nM

# Source: PubChem BioAssay (NCI)
